# Test results reported in patent US20100178271A1, “Combination Therapy” (GENZYME CORPORATION, priority 2006, published 2010).
# How the values were obtained:
# [1] = system: hematopoietic stem and progenitor cells (HSPC), CFU-GM; experiment: CFU-GM mobilization into peripheral blood, FancC −/− mice; type: in vivo
# [2] = system: hematopoietic stem and progenitor cells (HSPC), CFU-GM; experiment: CFU-GM mobilization into peripheral blood, BALB/c mice
# [3] = system: pre-B-ALL cells; conditions: in vitro, cited from earlier work
# [4] = system: collagen-induced arthritis; conditions: mice; cited from earlier work
# [5] = system: hematopoietic stem and progenitor cells (HSPC), CFU-GM; experiment: CFU-GM mobilization into peripheral blood, +/+ C57B1 (wild type) mice; type: in vivo; conditions: +/+ C57B1 controls; G-CSF alone regimen
molecule,measurement,setting,value
"GROβ: recombinant human GROβ, chemokine, CXCR2 agonist",CFU-GM mobilization in FancC −/− mice relative to +/+ controls,[1]; FancC −/− vs +/+ C57B1,lower in FancC −/− mice
same,CFU-GM/mL blood mobilized,"[2]; blood harvested 15 min after GROβ (2.5 mg/kg SC) or GROβ+AMD, alone or on day 5 after G-CSF regimen",2562±396 CFU-GM/mL blood
"c1cc(CN2CCCNCCNCCCNCC2)ccc1CN1CCCNCCNCCCNCC1 [AMD3100, 1,1′-[1,4-phenylene-bis(methylene)]-bis-1,4,8,11-tetraazacyclotetradecane]",effect on cytotoxic and antiproliferative effects of vincristine and dexamethasone,[3]; pre-B-ALL cells,enhanced
same,SDF-1 induced chemotaxis of pre-B-ALL cells into bone marrow stroma layers,[3],blocked
same,effect in collagen-induced arthritis models,[4],protective effects
same,CFU-GM/mL blood mobilized,"[2]; blood harvested 60 min after AMD (5 mg/kg SC), alone or on day 5 after G-CSF regimen",991±121 CFU-GM/mL blood
"G-CSF: recombinant human Granulocyte-Colony Stimulating Factor (protein, UniProt P09919 31-207, looked up) Granulocyte …: TPLGPASSLPQSFLLKCLEQVRKIQGDGAALQEKLVSECATYKLCHPEELVLLGHSLGIPWAPLSSCPSQALQLAGCLSQLHSGLFLYQGLLQALEGISPELGPTLDTLQLDVADFATTIWQQMEELGMAPALQPTQGAMPAFASAFQRRAGGVLVASHLQSFLEVSYRVLRHLAQP",CFU-GM mobilized,[5],1451±80
same,CFU-GM mobilized,"[1]; FancC −/− mice, G-CSF alone regimen",858±21
same,mobilization lower in FancC −/− mice compared to +/+ controls,[1]; FancC −/− vs +/+ C57B1,45%
same,CFU-GM/mL blood mobilized,"[2]; G-CSF alone 100 ug/kg/day, bid, SC×4 days",4362±996 CFU-GM/mL blood
